The values that follow come from patent US5138035A, “Cyclopeptide derivatives usable as selective inhibitors with respect to proteases with active serine” (Centre National de la Recherche Scientifique, priority 1988, dated 1992).

*1 amine or outer side, *2 acyl side, *3 side chain or, on linkers, in order; H or OH if unused. Where a SMILES comes first, the peptide text is derived from it. [ ]: non-standard residue; d: D form. X3 = O=C(c1cc(N[*:1])ccc1CBr)[*:2]

Holding throughout (type): biochemical
For test [1], the target named is T1, bovine trypsin (Bos taurus, UniProt P00760).
T1 sequence (P00760 24-246): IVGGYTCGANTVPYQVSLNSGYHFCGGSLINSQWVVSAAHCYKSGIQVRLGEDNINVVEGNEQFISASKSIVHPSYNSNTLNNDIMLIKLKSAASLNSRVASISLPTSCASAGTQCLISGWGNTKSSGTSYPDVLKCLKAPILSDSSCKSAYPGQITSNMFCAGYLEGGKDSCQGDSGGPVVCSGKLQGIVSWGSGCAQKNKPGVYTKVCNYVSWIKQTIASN
The experiment in a line: Inactivation of bovine trypsin (Hart and O'Brien / Kitz and Wilson kinetic methods). The note with it: 25° C., 0.1M Tris, 0.01M CaCl2, pH 7.2 (Example 14), method a (Hart and O'Brien) or b (Kitz and Wilson). From the text: (§1) The properties of the cyclopeptide derivative of formula (XVI) are checked and in particular its capacity to inactivate bovine trypsin or human urokinase using the methods of Kitz and Wilson (for trypsin and urokinase) and the method of Hart and O'Brien (for trypsin), 1973, published in Biochemistry, 12, pp. 2940-2945.
(§2) The properties of the cyclopeptide derivative of formula (XXIII) are checked and in particular its capacity to inactivate bovine trypsin or human urokinase using the same methods as in Example 2 and working at 25° C. with the 0.025M sodium phosphate buffer, 0.1M NaCl, 0.05% (v/v) Tween 80 and at pH 7.5 for human urokinase.
(§3) The kinetic measurements were carried out at 25° C. in the following buffers: 0.1M Tris, 0.01M CaCl2, pH 7.2 (bovine trypsin); 0.025M sodium phosphate, 0.1M NaCl, 0.05% (v/v) Tween 80, pH 7.5 (human urokinase); 0.05M Tris, 0.038M NaCl, 0.01% (v/v) Tween 80, pH 8.3 (human t-PA), 0.1M Tris (porcine pancreatic elastase), 0.1M sodium phosphate, 25% (v/v) glycerol (human plasmin). […]

Test [2] addresses human urokinase (Homo sapiens, UniProt P00749). The experiment in a line: Inactivation of human urokinase (Kitz and Wilson / Hart and O'Brien kinetic methods). The note with it: 25° C., 0.025M sodium phosphate, 0.1M NaCl, 0.05% (v/v) Tween 80, pH 7.5, method a and/or b.
Source text: as §1, §2, §3

In test [3] the target is human t-PA (Homo sapiens, UniProt P00750). The experiment in a line: Inactivation of human t-PA. The note with it: 25° C., 0.05M Tris, 0.038M NaCl, 0.01% (v/v) Tween 80, pH 8.3, method b. The protocol: The inactivating or inhibiting properties of this derivative with respect to human t-PA are checked at 25° C. in a 0.05M Tris buffer, 0.038M NaCl, 0.01% (v/v) Tween 80 and pH 8.3.
Sequence of human t-PA (P00750 36-562): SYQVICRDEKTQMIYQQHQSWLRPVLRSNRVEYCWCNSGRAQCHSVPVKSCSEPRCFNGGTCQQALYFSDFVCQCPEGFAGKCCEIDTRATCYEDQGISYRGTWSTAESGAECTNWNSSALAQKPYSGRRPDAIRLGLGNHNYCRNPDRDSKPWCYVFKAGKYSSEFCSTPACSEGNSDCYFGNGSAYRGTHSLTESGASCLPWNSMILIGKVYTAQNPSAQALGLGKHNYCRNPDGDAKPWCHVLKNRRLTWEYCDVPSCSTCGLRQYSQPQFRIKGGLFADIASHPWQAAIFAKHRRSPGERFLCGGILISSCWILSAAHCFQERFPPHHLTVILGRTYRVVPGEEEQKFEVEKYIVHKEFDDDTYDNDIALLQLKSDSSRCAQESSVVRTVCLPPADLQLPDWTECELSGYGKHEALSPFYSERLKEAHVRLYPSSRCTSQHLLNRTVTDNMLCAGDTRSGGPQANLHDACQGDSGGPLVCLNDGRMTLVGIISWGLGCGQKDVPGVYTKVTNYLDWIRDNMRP

Test [4] has as its target elastase (Sus scrofa, UniProt P00772). The experiment in a line: Action on elastase (Examples 2 and 4). The settings on record: species not given.

Sequence of elastase (P00772 27-266): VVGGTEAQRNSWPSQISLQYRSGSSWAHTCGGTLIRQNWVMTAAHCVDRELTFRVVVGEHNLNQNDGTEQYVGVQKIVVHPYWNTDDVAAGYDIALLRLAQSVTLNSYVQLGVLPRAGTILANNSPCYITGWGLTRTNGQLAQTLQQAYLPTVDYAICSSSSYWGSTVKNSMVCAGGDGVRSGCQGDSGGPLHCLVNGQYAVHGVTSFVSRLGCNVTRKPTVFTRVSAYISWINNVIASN

Take `N=C(N)NCCC[C@@H]1NC(=O)CNC(=O)CNC(=O)CNC(=O)CNC(=O)c2cc(ccc2CBr)NC1=O` [Compound (XXIII)] (cyclo(GGGGR[X3])): the “apparent inactivation constant ki/Ki” value in test [1] worked out at 150 M⁻¹ s⁻¹; in test [2] it was 165 M⁻¹ s⁻¹; in test [3], 0.3 M⁻¹ s⁻¹. Also, the action on elastase result in test [4] was “no action”.
